Measured values published in ChEMBL document CHEMBL1126396 (Bioorg Med Chem Lett, 1992).

Legend:
Somatostatin receptor [1] = experiment: Radioligand binding studies on rat cortex membranes using 125 I-Tyrs-octreotide as ligand was determined
Somatostatin receptor [2] = experiment: Inhibitory activity against Somatostatin receptor in rat cortex membrane using 125 I-Tyrs-octreotide as radioligand; assay type: cell membranes

IC50 (Somatostatin receptor [1]): 23 µM | Log Ki (Somatostatin receptor [2]): -4.73
SMILES: NCCCCCOCC1OC(OCCc2c[nH]c3ccccc23)C(OCc2ccccc2)C1OCc1ccccc1 (configuration not stated)
